How the values were obtained:
[1] = test system: 231MFP tumor xenograft; assay: 231MFP tumor xenograft growth; type: in vivo, immune-deficient SCID mice; settings: 50 mg/kg ip, daily, initiated 15 days after tumor xenograft injection
[2] = target: T1, C328 on vimentin (Homo sapiens, UniProt P08670); assay: Competitive isoTOP-ABPP in 231MFP proteomes in vitro; type: binding; settings: 10 μM, in vitro treatment of 231MFP proteomes
T1 construct: in vitro treatment of 231MFP breast cancer cell proteomes with withaferin A; endogenous in cells; host or cells: 231MFP breast cancer cells
T1 sequence (P08670 whole entry): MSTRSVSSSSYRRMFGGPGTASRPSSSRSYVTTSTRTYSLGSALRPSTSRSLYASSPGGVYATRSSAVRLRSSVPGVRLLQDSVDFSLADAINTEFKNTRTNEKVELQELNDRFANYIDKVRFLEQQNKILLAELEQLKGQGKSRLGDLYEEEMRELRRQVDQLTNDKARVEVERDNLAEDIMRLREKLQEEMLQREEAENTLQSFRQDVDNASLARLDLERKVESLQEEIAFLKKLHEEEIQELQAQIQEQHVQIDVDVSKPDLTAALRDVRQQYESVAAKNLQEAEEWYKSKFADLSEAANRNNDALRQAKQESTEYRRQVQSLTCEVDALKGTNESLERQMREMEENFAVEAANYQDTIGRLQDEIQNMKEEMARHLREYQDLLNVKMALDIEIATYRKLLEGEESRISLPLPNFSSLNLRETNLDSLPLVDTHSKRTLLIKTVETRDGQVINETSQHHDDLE
Experimental: IsoTOP-ABPP studies were performed using the methods described in “Nature 534(7608), 570-574 (2016)” by Backus K. M., et al. and “Nature 468(7325), 790-795 (2010)” by Weerapana E., et al. Proteome samples diluted in PBS were treated with Withaferin A or vehicle for 30 minutes at 37° C. Then, IAyne (iodoacetamide-alkyne) labeling was performed for 1 hour at room temperature. CuAAC was used by sequential addition of tris(2-carboxyethyl)phosphine (1 mM), tris[(1-benzyl-1H-1,2,3-triazol-4-yl)methyl]amine (34 μM), copper (II) sulfate (1 mM), and biotin-linker-azide where the linker was functionalized with a TEV protease recognition sequence along with an isotopically light or heavy valine for treatment of control or treated proteome, respectively. After click reactions, proteomes were precipitated by centrifugation at 6500×g, washed in ice-cold methanol, combined in a 1:1 control/treated ratio, washed again, then denatured and re-solubilized by heating in 1.2% SDS/PBS to 80° C. for 5 minutes. Insoluble components were precipitated by centrifugation at 6500×g and soluble proteome was diluted in 0.2% SDS/PBS (5 ml). Labeled proteins were bound to avidin-agarose beads (170 μl re-suspended beads/sample) while rotating overnight at 4° C. Bead-linked proteins were enriched by washing three times each in PBS and water, then re-suspended in urea/PBS (6 M), reduced in TCEP (1 mM), alkylated with iodoacetamide (18 mM), then washed and re-suspended in urea/PBS (2 M), and finally trypsinized overnight with 0.5 μg/μl sequencing grade trypsin. Tryptic peptides were eluted off. Beads were washed in PBS (3 times) and water (3 times), washed in TEV buffer solution (water, TEV buffer, 100 μM dithiothreitol), and re-suspended in buffer with Ac-TEV protease and then incubated overnight. Peptides were diluted in water, acidified with formic acid (1.2 M), and prepared for analysis.
Peptides from all proteomic experiments were pressure-loaded onto an Agilent 600 series RP-HPLC system equipped with a capillary tubing (250 mm) packed with Aqua C18 reverse-phase resin (4 cm). The system was previously equilibrated with a gradient (0% B to 100% B over 10 minutes, 100% B for 5 minutes, then 0% B for 5 minutes; buffer A: 95:5 water:acetonitrile, 0.1% formic acid; buffer B: 80:20 acetonitrile:water, 0.1% formic acid). The samples were then attached using a MicroTee PEEK 360 μm fitting to a laser pulled column (13 cm) packed with Aqua C18 reverse-phase resin (10 cm) and strong-cation exchange resin (3 cm) for isoTOP-ABPP studies. Samples were analyzed using an Q Exactive Plus mass spectrometer using a 5-step Multidimensional Protein Identification Technology (MudPIT) program. […]

[3] = test system: MCF7 cells; assay: MCF7 serum-free cell survival; type: cell-based; settings: 10 μM, 48 h
[4] = test system: MCF7 cells; assay: MCF7 cell proliferation; type: cell-based; settings: 10 μM, 48 h
[5] = test system: HCC38 cells; assay: HCC38 cell proliferation; type: cell-based; settings: 10 μM, 48 h

Compound | 231MFP tumor xenograft growth [1] | light to heavy ratio, C328 on vimentin [2] | serum-free cell survival [3] | cell proliferation [4] | cell proliferation [5]
O=C(CCl)N(Cc1ccccc1)c1ccc2c(c1)OCCO2 [JNS 1-40, N-benzyl-2-chloro-N-(2,3-dihydrobenzo[b][1,4]dioxin-6-yl)acetamide] | significantly attenuated tumor growth | – | – | – | –
CC1=C(CO)C(=O)O[C@@H]([C@@H](C)[C@H]2CC[C@H]3[C@@H]4C[C@H]5O[C@]56[C@@H](O)C=CC(=O)[C@]6(C)[C@H]4CC[C@]23C)C1 [withaferin A, reference compound] | – | 1.0 | impairs | impairs | impairs

Source: patent US20200054651A1, “COMPOSITIONS AND METHODS FOR MODULATING PPP2R1A” (The Regents of the University of California, priority 2017, published 2020)
